Reference: PMC6017090, “Design, Synthesis and Biological Evaluation of Novel N-Pyridyl-Hydrazone Derivatives as Potential Monoamine Oxidase (MAO) Inhibitors” (Molecules : A Journal of Synthetic Chemistry and Natural …, 2018)

Tests used:
human recombinant MAO-B = biological target: T1, human recombinant MAO-B (Homo sapiens, UniProt P27338); assay: MAO activity assay (fluorometric, kynuramine substrate), MAO-B; assay type: biochemical; conditions: for inhibition at 1000 µM: 10^−3 M; for inhibition at 1000 µM / inhibition at 100 µM: ± S.D.; for inhibition at 100 µM: 10^−4 M
T1 construct: purchased Sigma-Aldrich
T1 sequence (P27338 1-520): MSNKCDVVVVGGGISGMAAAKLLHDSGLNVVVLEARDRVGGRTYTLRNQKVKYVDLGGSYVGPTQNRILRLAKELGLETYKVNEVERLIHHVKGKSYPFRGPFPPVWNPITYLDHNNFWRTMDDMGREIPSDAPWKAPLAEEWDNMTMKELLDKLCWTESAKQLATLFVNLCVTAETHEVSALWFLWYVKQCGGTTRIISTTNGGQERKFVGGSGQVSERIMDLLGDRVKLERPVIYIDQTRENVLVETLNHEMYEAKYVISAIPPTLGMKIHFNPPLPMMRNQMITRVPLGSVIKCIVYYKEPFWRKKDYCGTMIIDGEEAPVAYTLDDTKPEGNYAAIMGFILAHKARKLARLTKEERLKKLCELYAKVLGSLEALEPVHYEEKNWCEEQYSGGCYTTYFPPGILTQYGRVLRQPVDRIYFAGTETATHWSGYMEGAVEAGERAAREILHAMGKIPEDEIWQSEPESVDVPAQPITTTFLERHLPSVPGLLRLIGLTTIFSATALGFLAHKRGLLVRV
Protocol: (§1) The enzyme activity assay was performed in accordance with the procedure reported by Matsumoto et al. with slight modifications. All materials used in the enzymatic assays were purchased from Sigma-Aldrich Chemicals. All pipetting protocols in the assay were performed by the Biotek Precision robotic system (BioTek Instruments, Inc., Winooski, VT, USA). To prevent the effect of light MAO enzymes, the assay was performed in 96-well black plates. Phosphate buffer (0.1 M, pH = 7.4) was used for the preparation of 5 mg/mL stock solutions of the human recombinant MAO-A and MAO-B enzymes. The enzyme stock solutions were further diluted with an assay buffer to obtain final concentrations of 0.006 mg/mL MAO-A and 0.015 mg/mL MAO-B. Kynuramine was dissolved in sterilized distilled water to obtain a 25 mM stock solution and then diluted with the assay buffer to obtain final concentrations of 40 μM for the MAO-A enzyme and 20 μM for the MAO-B enzyme. […] The addition of the diluted compounds was followed by the addition of either the MAO-A or MAO-B enzymes (50 μL/well). […] Fluorescence was read from top by using BioTek-Synergy H1 multimode microplate reader at the excitation/emission wavelengths of 310 and 380 nm.
(§2) The IC50 values (Table 2) were calculated from the plots of enzyme activity against concentrations, and the regression analyses were computed in GraphPad Prism Version 6 (GraphPad Software, Inc., La Jolla, CA, USA).

MAO-A enzyme [1] = biological target: T2, MAO-A enzyme (Homo sapiens, UniProt P21397); assay: MAO activity assay (fluorometric, kynuramine substrate), MAO-A; assay type: biochemical; conditions: for inhibition at 1000 µM: 10^−3 M; for inhibition at 1000 µM / inhibition at 100 µM: ± S.D.; for inhibition at 100 µM: 10^−4 M; for inhibition at 10 µM: 10^−5 M; for inhibition at 1 µM: 10^−6 M; for inhibition at 0.1 µM: 10^−7 M; for inhibition at 0.01 µM: 10^−8 M; for inhibition at 0.001 µM: 10^−9 M
T2 construct: purchased Sigma-Aldrich
T2 sequence (P21397 1-527): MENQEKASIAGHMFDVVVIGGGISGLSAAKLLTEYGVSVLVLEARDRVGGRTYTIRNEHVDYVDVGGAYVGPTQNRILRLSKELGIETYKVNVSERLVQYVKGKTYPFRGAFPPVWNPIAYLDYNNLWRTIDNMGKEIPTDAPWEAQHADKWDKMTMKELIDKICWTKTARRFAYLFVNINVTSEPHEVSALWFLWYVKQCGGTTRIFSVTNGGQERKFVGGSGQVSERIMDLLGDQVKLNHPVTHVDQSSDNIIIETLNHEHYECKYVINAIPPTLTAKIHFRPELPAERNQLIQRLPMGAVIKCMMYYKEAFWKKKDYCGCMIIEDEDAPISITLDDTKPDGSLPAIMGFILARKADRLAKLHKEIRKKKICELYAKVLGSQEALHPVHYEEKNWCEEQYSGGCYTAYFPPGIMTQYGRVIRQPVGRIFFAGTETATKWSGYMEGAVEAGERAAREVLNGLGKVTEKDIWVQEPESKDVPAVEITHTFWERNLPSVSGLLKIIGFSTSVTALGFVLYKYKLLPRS
Protocol: as §1, with “Phosphate buffer (0.1 M, pH = 7.4) was used for the preparation of 5 mg/mL stock solutions of the human recombinant MAO-A and MAO-B enzymes.” left out
as §2

[2] = Cytotoxicity test (MTT assay); conditions: mouse, NIH/3T3 mouse embryonic fibroblast cells (ATCC CRL-1658)
Protocol: The MTT assay was performed as previously described [21, 22, 23, 24, 25, 26].

MAO-A enzyme [3] = biological target: T2, MAO-A enzyme; assay: Enzyme kinetic studies (Lineweaver-Burk plots) on MAO-A; assay type: biochemical
Protocol: The same materials were used for the MAO-inhibition assay. Compound 2j was prepared at the IC50 concentration calculated in the enzyme assay and then added to the wells (100 μL/well). The stock solution (25 mM) of kynuramine in 0.1 M phosphate buffer was diluted to final concentrations of 40, 20, 10, 5, 2.5 and 1.25 μM and then added to the wells (50 μL/well) that contained the test compound. The MAO-A enzyme was added to the plate (50 μL/well), incubated for 20 min at 37 °C, and the plate was read at excitation/emission wavelengths of 310 and 340 nm. The control measurement without the inhibitor was determined simultaneously. The results were analyzed by using Lineweaver-Burk plots in Microsoft Office Excel 2013 (Microsoft Inc., Redmond, WA, USA).
1/V: 1/rate of reaction [1/(nmoles/min/mg protein)], 1/S: 1/substrate concentration (1/µM).

melting point [°C]	inhibition at 1000 µM (human recombinant MAO-B) [%]	inhibition at 100 µM (human recombinant MAO-B) [%]	inhibition at 1000 µM (MAO-A enzyme [1]) [%]	inhibition at 100 µM (MAO-A enzyme [1]) [%]	IC50 (MAO-A enzyme [1]) [µM]	inhibition at 10 µM (MAO-A enzyme [1]) [%]	inhibition at 1 µM (MAO-A enzyme [1]) [%]	inhibition at 0.1 µM (MAO-A enzyme [1]) [%]	inhibition at 0.01 µM (MAO-A enzyme [1]) [%]	inhibition at 0.001 µM (MAO-A enzyme [1]) [%]	IC50 (human recombinant MAO-B) [µM]	inhibition at 10 µM (human recombinant MAO-B; 10^−5 M) [%]	inhibition at 1 µM (human recombinant MAO-B; 10^−6 M) [%]	inhibition at 0.1 µM (human recombinant MAO-B; 10^−7 M) [%]	inhibition at 0.01 µM (human recombinant MAO-B; 10^−8 M) [%]	inhibition at 0.001 µM (human recombinant MAO-B; 10^−9 M) [%]	Vmax (MAO-A enzyme [3]; MAO-A, kynuramine substrate, nonlinear regression) [nmol/min/mg protein]	Nature of MAO-A inhibition (Lineweaver–Burk plots) (MAO-A enzyme [3]; compound at IC50 concentration, kynuramine 40-1.25 μM)	SMILES	IC50 [2] [µM]
192	86.3 ± 1.25	3.52 ± 0.15	80.8 ± 1.31	16.9 ± 0.49	–	–	–	–	–	–	–	–	–	–	–	–	–	–	CCOc1ccc([N+](=O)[O-])c(NN=Cc2ccc(N(C)C)cc2)n1 [Compound 2h, 6-Ethoxy-2-[2-(4-dimethylaminobenzylidene)hydrazinyl]-3-nitropyridine]	–
211	0.43 ± 0.02	0.11 ± 0.004	49 ± 1.22	0.46 ± 0.01	–	–	–	–	–	–	–	–	–	–	–	–	–	–	CCOc1ccc([N+](=O)[O-])c(NN=Cc2ccc(Cl)cc2)n1 [Compound 2b, 2-[2-(4-Chlorobenzylidene)hydrazinyl]-6-ethoxy-3-nitropyridine]	–
175	33.1 ± 1.14	0.22 ± 0.008	55.6 ± 1.05	14 ± 0.41	–	–	–	–	–	–	–	–	–	–	–	–	–	–	CCOc1ccc([N+](=O)[O-])c(NN=Cc2ccc(OC)cc2)n1 [Compound 2e, 6-Ethoxy-2-[2-(4-methoxybenzylidene)hydrazinyl]-3-nitropyridine]	–
158	63.8 ± 1.28	52.7 ± 1.29	75.7 ± 1.85	69.8 ± 1.43	6.25	56.1 ± 1.27	43.2 ± 1.06	38.8 ± 1.07	32.7 ± 0.82	26.7 ± 0.96	9.3	40.2 ± 1.12	31.6 ± 1.08	25 ± 0.95	21.9 ± 0.82	12.5 ± 0.51	1.903	mixed type inhibitor	CCOc1ccc([N+](=O)[O-])c(NN=Cc2ccc(O)cc2)n1 [Compound 2j, 4-[(2-(6-Ethoxy-3-nitropyridin-2-yl)hydrazono)methyl]phenol]	> 1000
267	0.67 ± 0.03	0.27 ± 0.01	25.9 ± 0.87	14.4 ± 0.54	–	–	–	–	–	–	–	–	–	–	–	–	–	–	CCOc1ccc([N+](=O)[O-])c(NN=Cc2ccc(C#N)cc2)n1 [Compound 2g, 6-Ethoxy-2-[2-(4-cyanobenzylidene)hydrazinyl]-3-nitropyridine]	–
191	60.2 ± 1.18	0.69 ± 0.03	52 ± 1.02	7.09 ± 0.18	–	–	–	–	–	–	–	–	–	–	–	–	–	–	CCOc1ccc([N+](=O)[O-])c(NN=Cc2ccc(F)cc2)n1 [Compound 2c, 6-Ethoxy-2-[2(4-fluorobenzylidene)hydrazinyl]-3-nitropyridine]	–
165	38.3 ± 1.19	29.1 ± 0.99	55.7 ± 1.26	51.7 ± 1.18	13.1	31.2 ± 1.2	21.1 ± 0.84	15.4 ± 0.62	12.7 ± 0.43	11.6 ± 0.38	–	–	–	–	–	–	–	–	CCOc1ccc([N+](=O)[O-])c(NN=Cc2ccc(C(F)(F)F)cc2)n1 [Compound 2i, 6-Ethoxy-2-[2-(4-trifluoromethylbenzylidene)hydrazinyl]-3-nitropyridine]	> 1000
171	0.52 ± 0.02	0.18 ± 0.006	20.1 ± 0.41	11.4 ± 0.28	–	–	–	–	–	–	–	–	–	–	–	–	–	–	CCOc1ccc([N+](=O)[O-])c(NN=Cc2ccc(C)cc2)n1 [Compound 2d, 6-Ethoxy-2-[2-(4-methylbenzylidene)hydrazinyl]-3-nitropyridine]	–

Second part, the molecule before the results:

SMILES	melting point [°C]	inhibition at 1000 µM (human recombinant MAO-B) [%]	inhibition at 100 µM (human recombinant MAO-B) [%]	inhibition at 1000 µM (MAO-A enzyme [1]) [%]	inhibition at 100 µM (MAO-A enzyme [1]) [%]	IC50 (MAO-A enzyme [1]) [µM]	inhibition at 10 µM (MAO-A enzyme [1]) [%]	inhibition at 1 µM (MAO-A enzyme [1]) [%]	inhibition at 0.1 µM (MAO-A enzyme [1]) [%]	inhibition at 0.01 µM (MAO-A enzyme [1]) [%]	inhibition at 0.001 µM (MAO-A enzyme [1]) [%]	IC50 (human recombinant MAO-B) [µM]	inhibition at 10 µM (human recombinant MAO-B; 10^−5 M) [%]	inhibition at 1 µM (human recombinant MAO-B; 10^−6 M) [%]	inhibition at 0.1 µM (human recombinant MAO-B; 10^−7 M) [%]	inhibition at 0.01 µM (human recombinant MAO-B; 10^−8 M) [%]	inhibition at 0.001 µM (human recombinant MAO-B; 10^−9 M) [%]	Vmax (MAO-A enzyme [3]; MAO-A, kynuramine substrate, nonlinear regression) [nmol/min/mg protein]	Nature of MAO-A inhibition (Lineweaver–Burk plots) (MAO-A enzyme [3]; compound at IC50 concentration, kynuramine 40-1.25 μM)	IC50 [2] [µM]
CCOc1ccc([N+](=O)[O-])c(NN=Cc2cccn2C)n1 [Compound 2k, 6-Ethoxy-2-[2-((1-methyl-1H-pyrrol-2-yl)methylene)hydrazinyl]-3-nitropyridine]	163	40.9 ± 1.02	39.7 ± 1.15	76.6 ± 1.38	66.1 ± 1.47	6.12	54.7 ± 1.2	36.6 ± 1.08	33.2 ± 0.92	25.2 ± 0.88	23 ± 0.89	–	–	–	–	–	–	–	–	> 1000
CCOc1ccc([N+](=O)[O-])c(NN=Cc2ccco2)n1 [Compound 2l, 6-Ethoxy-2-[2-((furan-2-yl)methylene)hydrazinyl]-3-nitropyridine]	155	51 ± 1.08	43 ± 1.06	67.8 ± 1.44	64.4 ± 1.3	10.6	43 ± 1.02	31 ± 0.98	27.2 ± 0.89	19.8 ± 0.41	17.88 ± 0.17	–	–	–	–	–	–	–	–	> 1000
CCOc1ccc([N+](=O)[O-])c(NN=Cc2cccs2)n1 [Compound 2m, 6-Ethoxy-3-nitro-2-[2-((thiophen-2-yl)methylene)hydrazinyl]pyridine]	152	34.4 ± 0.88	21.2 ± 0.8	41.4 ± 1.13	36 ± 1.15	–	–	–	–	–	–	–	–	–	–	–	–	–	–	–
O=C(NCCN1CCOCC1)c1ccc(Cl)cc1 [Moclobemide, moclobemide, reference compound]	–	–	–	–	–	–	60.5 ± 2.55	36.1 ± 1.98	22.1 ± 1.33	18.2 ± 0.81	14.1 ± 0.72	–	–	–	–	–	–	–	–	–
CCOc1ccc([N+](=O)[O-])c(NN=Cc2ccccc2)n1 [Compound 2a, 2-(2-Benzylidenehydrazinyl)-6-ethoxy-3-nitropyridine]	168	0.76 ± 0.03	0.58 ± 0.01	25.6 ± 0.88	17.9 ± 0.68	–	–	–	–	–	–	–	–	–	–	–	–	–	–	–
CCOc1ccc([N+](=O)[O-])c(NN=Cc2ccc([N+](=O)[O-])cc2)n1 [Compound 2f, 6-Ethoxy-3-nitro-2-[2-(4-nitrobenzylidene)hydrazinyl]pyridine]	281	7.39 ± 0.31	0.55 ± 0.02	65 ± 1.23	16 ± 0.56	–	–	–	–	–	–	–	–	–	–	–	–	–	–	–
